Biological target: T1, RXRα (Homo sapiens, UniProt P19793)
T1 construct: gene RXRA; RXRα-LBD (N-terminal His-tagged)
T1 sequence (P19793 223-462 limits assumed): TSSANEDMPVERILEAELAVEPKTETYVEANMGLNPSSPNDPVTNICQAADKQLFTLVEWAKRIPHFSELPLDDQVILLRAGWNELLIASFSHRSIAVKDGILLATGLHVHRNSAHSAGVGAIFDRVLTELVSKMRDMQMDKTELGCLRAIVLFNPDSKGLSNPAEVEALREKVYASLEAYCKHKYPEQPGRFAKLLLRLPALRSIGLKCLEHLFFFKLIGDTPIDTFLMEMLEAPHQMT
Experiment: fluorescence quenching with purified RXRα-LBD
Type: binding

Structure (SMILES) | Kd
CC(=O)O[C@H]1C[C@H]2[C@H]3[C@H]([C@@H](O)C[C@]2(C)[C@H]1[C@H](C)C=C[C@H](C)C(C)C)[C@@]1(C)CC[C@H](O)CC1=C[C@@H]3O [compound 2, 16β-acetoxy-3β,7β,11β-trihydroxyergost-5,22-diene] | 13.8 µM
CC(=O)O[C@H]1C[C@H]2[C@@H]3[C@@H](O)[C@@H](O)[C@H]4C[C@@H](O)CC[C@]4(C)[C@H]3[C@@H](O)C[C@]2(C)[C@H]1[C@H](C)/C=C/[C@H](C)C(C)C [compound 6, penicisteroid A] | 12.9 µM

From publication PMC6472029, “Steroids from the Deep-Sea-Derived Fungus Penicillium granulatum MCCC 3A00475 Induced Apoptosis via Retinoid X Receptor (RXR)-α Pathway” (Marine Drugs, 2019)
